According to US5225607A, “Insecticidal ethers” (Imperial Chemical Industries PLC, priority 1985, dated 1993):

How the values were obtained:
Type in all cases: in vivo
Heliothis virescens = experiment: whole plant or invertebrate; details: in Gossypium hirsutum, 72 h, read-out: grading of mortality, HV
Summary of the method: (§1)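 Product applied at 500, 250 or 100 ppm as acetone solution diluted in water with 0.01% Lissapol NX wetting agent, onto pests and/or their host plant or food medium. Mortality or knockdown scored 1–3 days after treatment and graded A (80–100%; 70–100% for S. exigua), B (50–79%; 50–69% for S. exigua) or C (<50%).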

Tetranychus urticae = experiment: Insecticidal/acaricidal test, Tetranychus urticae (spider mites - adult), contact; details: 72 h, French bean leaf, 3 days, read-out: grading of mortality, TU
Summary of the method: as §1

Diabrotica balteata = experiment: Insecticidal test, Diabrotica balteata (rootworm larvae), residual; details: 72 h, filter paper/maize seed, 3 days, read-out: grading of mortality, DB
Summary of the method: as §1

Nilaparvata lugens = experiment: Insecticidal test, Nilaparvata lugens (brown planthopper), contact; details: 72 h, Cabbage leaf, 3 days, read-out: grading of mortality, NL
Summary of the method: as §1

Musca domestica [1] = experiment: Knockdown test, Musca domestica (houseflies - adults); details: cotton wool/sugar, 4 hours, read-out: grading of knockdown, MD/KD
Summary of the method: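 Knockdown scores were banded: A 80–100%, B 50–79%, C <50%. Test preparations of 500, 250 or 100 ppm compound were made in acetone, then diluted with water containing 0.01% Lissapol NX, and applied to Musca domestica adults.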

Spodoptera exigua = experiment: Insecticidal test, Spodoptera exigua (lesser armyworm), residual; details: 72 h, cotton leaf, 3 days, read-out: grading of mortality, SE
Protocol: The activity of the Product was determined using a variety of insect and acarine pests. The Product was used in the form of liquid preparations containing 500, 250 or 100 parts per million (ppm) by weight of the Product. The preparations were made by dissolving the Product in acetone and diluting the solutions with water containing 0.01% by weight of a wetting agent sold under the trade name "LISSAPOL" NX until the liquid preparations contained the required concentratio of the Product. "Lissapol" is a Registered Trade Mark.
The test procedure adopted with regard to each pest was basically the same and comprised supporting a number of the pests on a medium which was usually a host plant or a foodstuff on which the pests feed, and treating either or both the pests and the medium with the preparations. The mortality of the pests was then assessed at periods usually varying from one to three days after the treatment.
The results of the tests are given in Table IV for each of the Products, at the rate in parts per million given in the second column as a grading of mortality designated as A, B or C wherein A indicates 80-100% mortality or knockdown (70-100% in the case of Spodoptera exigua), B indicates 50-79% mortality or knockdown (50-69% in the case of Spodoptera exigua) and C indicates less than 50% mortality or knockdown.
In Table IV the pest organism used is designated by a letter code and the pest species, the support medium or food, and the type and duration of test is given in Table III.

Myzus persicae = experiment: Insecticidal test, Myzus persicae (aphids), contact; details: 72 h, Chinese Cabbage leaf, 3 days, read-out: grading of mortality, MP
Summary of the method: as §1

Musca domestica [2] = experiment: Insecticidal test, Musca domestica (houseflies - adults), contact; details: 24 h, cotton wool/sugar, 1 day, read-out: grading of mortality, MD
Summary of the method: as §1

Blattella germanica = experiment: Insecticidal test, Blattella germanica (cockroach nymphs), residual; details: 72 h, plastic pot, 3 days, read-out: grading of mortality, BG
Summary of the method: as §1

| SMILES | mortality at 500 ppm (Heliothis virescens) [%] | mortality at 500 ppm (Tetranychus urticae) [%] | mortality at 500 ppm (Diabrotica balteata) [%] | mortality at 500 ppm (Nilaparvata lugens) [%] | pest or weed control at 500 ppm (Musca domestica [1]) [%] | mortality at 500 ppm (Spodoptera exigua) [%] | mortality at 500 ppm (Myzus persicae) [%] | mortality at 500 ppm (Musca domestica [2]) [%] | mortality at 500 ppm (Blattella germanica) [%] | also measured |
| --- | --- | --- | --- | --- | --- | --- | --- | --- | --- | --- |
| CCOc1ccc(C(COCc2cccc(Oc3ccc(F)cc3F)c2)C(F)(F)F)cc1 (stereo not shown) [Compound 10, 1,1,1-Trifluoro-2-(4-ethoxyphenyl)-3-(3-(2,4-difluorophenoxy)benzyloxy)propane] |  |  |  |  |  |  |  |  |  | mortality at 250 ppm (Heliothis virescens): 80 to 100%; mortality at 250 ppm (Tetranychus urticae; 250 ppm): < 50%; mortality at 250 ppm (Diabrotica balteata; 250 ppm): 80 to 100%; mortality at 250 ppm (Nilaparvata lugens; 250 ppm): 80 to 100%; pest or weed control at 250 ppm (Musca domestica [1]; 250 ppm): 80 to 100%; mortality at 250 ppm (Spodoptera exigua; 250 ppm): 70 to 100%; mortality at 250 ppm (Myzus persicae; 250 ppm): 50 to 79%; mortality at 250 ppm (Musca domestica [2]; 250 ppm): 80 to 100%; mortality at 250 ppm (Blattella germanica; 250 ppm): 80 to 100% |
| COCc1ccc(C(COCc2cccc(Oc3ccccc3)c2)C(F)(F)F)cc1 (stereo not shown) [Compound 24, 1,1,1-Trifluoro-2-(4-methoxymethylphenyl)-3-(3-phenoxybenzyloxy)propane] |  |  |  |  |  |  |  |  |  | mortality at 100 ppm (Heliothis virescens): 50 to 79%; mortality at 100 ppm (Tetranychus urticae): < 50%; mortality at 100 ppm (Diabrotica balteata): 80 to 100%; mortality at 100 ppm (Nilaparvata lugens): 80 to 100%; pest or weed control at 100 ppm (Musca domestica [1]): 80 to 100%; mortality at 100 ppm (Spodoptera exigua): 70 to 100%; mortality at 100 ppm (Myzus persicae): 80 to 100%; mortality at 100 ppm (Musca domestica [2]): 80 to 100%; mortality at 100 ppm (Blattella germanica): 80 to 100% |
| FC(F)(F)c1ccc(C(F)(COCc2cccc(Oc3ccccc3)c2)C(F)(F)F)cc1 (stereo not shown) [Compound 84, 1,1,1,2-Tetrafluoro-2-(4-trifluoromethylphenyl)-3-(3-phenoxybenzyloxy)propane] | 80 to 100 | 80 to 100 | 80 to 100 | 80 to 100 | 80 to 100 | 70 to 100 | 80 to 100 | 80 to 100 | 80 to 100 |  |
| CCOc1c(F)cc(C(COCc2cccc(Oc3ccc(Cl)cc3)c2)C(F)(F)F)cc1F (racemic) [Compound 165, (RS)-1,1,1-Trifluoro-2-(3,5-difluoro-4-ethoxyphenyl)-3 (3-(4-chlorophenoxy)benzyloxy)propane] | 80 to 100 | 80 to 100 | 80 to 100 | 80 to 100 | 80 to 100 | 70 to 100 | 80 to 100 | 80 to 100 | 80 to 100 |  |
| CCOc1ccc(C(COCc2ccc(F)c(Cc3ccccc3)c2)C(F)(F)F)cc1 (stereo not shown) [Compound 8] | 80 to 100 | < 50 | 80 to 100 | 80 to 100 | 80 to 100 | 70 to 100 | 80 to 100 | 80 to 100 | 80 to 100 |  |
| FC(F)(F)C(Cl)(COCc1cccc(Oc2ccccc2)c1)c1ccc2c(c1)OCO2 (stereo not shown) [Compound 64, 1,1,1-Trifluoro-2-chloro-2-(3,4-methylenedioxyphenyl)-3-(3-phenoxybenzyloxy)propane] | 80 to 100 | < 50 | < 50 | < 50 | 50 to 79 | < 50 | < 50 | 50 to 79 | < 50 |  |
| CCOc1ccc(C(COCc2cccc(Cc3ccccc3)c2)C(F)(F)F)cc1 (stereo not shown) [Compound 12, 1,1,1-Trifluoro-2-(4-ethoxyphenyl)-3-(3-benzylbenzyloxy)propane] | 80 to 100 | < 50 | 80 to 100 | 80 to 100 | 80 to 100 | 70 to 100 | 80 to 100 | 80 to 100 | 80 to 100 |  |
| FC(F)(F)Oc1ccc(C(Cl)(COCc2cccc(Oc3ccccc3)n2)C(F)(F)F)cc1 (stereo not shown) [Compound 61] |  |  |  |  |  |  |  |  |  | mortality at 100 ppm (Heliothis virescens): 80 to 100%; mortality at 100 ppm (Tetranychus urticae): 80 to 100%; mortality at 100 ppm (Diabrotica balteata): 80 to 100%; mortality at 100 ppm (Nilaparvata lugens): 80 to 100%; pest or weed control at 100 ppm (Musca domestica [1]): 80 to 100%; mortality at 100 ppm (Spodoptera exigua): 70 to 100%; mortality at 100 ppm (Myzus persicae): 80 to 100%; mortality at 100 ppm (Musca domestica [2]): 80 to 100%; mortality at 100 ppm (Blattella germanica): 80 to 100% |
| CCOc1ccc(C(COCc2cccc(Oc3ccccc3)c2)C(F)(F)F)cc1F (stereo not shown) [Compound 14, 1,1,1-Trifluoro-2-(3-fluoro-4-ethoxyphenyl)-3-(3-phenoxybenzyloxy)propane] |  |  |  |  |  |  |  |  |  | mortality at 100 ppm (Heliothis virescens): 80 to 100%; mortality at 100 ppm (Tetranychus urticae): < 50%; mortality at 100 ppm (Diabrotica balteata): 80 to 100%; mortality at 100 ppm (Nilaparvata lugens): 80 to 100%; pest or weed control at 100 ppm (Musca domestica [1]): 80 to 100%; mortality at 100 ppm (Spodoptera exigua): 70 to 100%; mortality at 100 ppm (Myzus persicae): 80 to 100%; mortality at 100 ppm (Musca domestica [2]): 80 to 100%; mortality at 100 ppm (Blattella germanica): 80 to 100% |
| CCOc1ccc(C(COCc2cccc(Oc3ccc(Cl)cc3)c2)C(F)(F)F)cc1F (stereo not shown) [Compound 13, 1,1,1-Trifluoro-2-(3-fluoro-4-ethoxyphenyl)-3-(3-(4-chlorophenoxy)benzyloxy)propane] |  |  |  |  |  |  |  |  |  | mortality at 100 ppm (Heliothis virescens): 80 to 100%; mortality at 100 ppm (Tetranychus urticae): < 50%; mortality at 100 ppm (Diabrotica balteata): 50 to 79%; mortality at 100 ppm (Nilaparvata lugens): 80 to 100%; pest or weed control at 100 ppm (Musca domestica [1]): 80 to 100%; mortality at 100 ppm (Spodoptera exigua): 70 to 100%; mortality at 100 ppm (Myzus persicae): 80 to 100%; mortality at 100 ppm (Musca domestica [2]): 80 to 100%; mortality at 100 ppm (Blattella germanica): 80 to 100% |
| FC(F)(F)C(COCc1cccc(Oc2ccc(Cl)cc2)c1)c1ccc2c(c1)OCO2 (stereo not shown) [Compound 32, 1,1,1-Trifluoro-2-(3,4-methylenedioxyphenyl)-3-(3-(4-chlorophenoxy)benzyloxy)propane] | 80 to 100 | < 50 | 80 to 100 | 80 to 100 | 80 to 100 | 70 to 100 | 50 to 79 | 80 to 100 | 50 to 79 |  |
| CCOc1c(F)cc(C(COCc2cccc(Oc3ccccc3)c2)C(F)(F)F)cc1F (racemic) [Compound 163, (RS)-1,1,1-trifluoro-2-(3,5-difluoro-4-ethoxyphenyl)-3-(3-phenoxybenzyloxy)propane] | 80 to 100 | 80 to 100 | 80 to 100 | 80 to 100 | 80 to 100 | 70 to 100 | 80 to 100 | 80 to 100 | 80 to 100 |  |
| Cc1ccc(C(COCc2cccc(Oc3ccccc3)c2)C(F)(F)F)cc1 (stereo not shown) [Compound 22, 1,1,1-Trifluoro-2-(4-methylphenyl)-3-(3-phenoxybenzyloxy)propane] | 50 to 79 | < 50 | 80 to 100 | 80 to 100 | 80 to 100 | 70 to 100 |  | 80 to 100 | 80 to 100 |  |
| CCOc1ccc(C(COC(c2cccc(Oc3ccccc3)c2)C(F)(F)F)C(F)(F)F)cc1 (racemic) [Compound 264] | < 50 | 50 to 79 | < 50 |  | < 50 | 70 to 100 | < 50 | < 50 | < 50 |  |
